Experimental data from ChEMBL document CHEMBL1201862, “PubChem BioAssay data set” (2004).
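Compound exposure: 48 hours, 5 concentrations, 96-well plates. GI50: concentration for 50% inhibition of growth.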 Activity calls are given as the source filed them. Rule as the data show it: active = GI50 up to about 1.1 µM and inactive = higher.

Key:
Test in all cases: NCI tumour cell line growth inhibition, 48 h
[1] = test system: 786-0
[2] = test system: A498
[3] = test system: A549
[4] = test system: CCRF-CEM
[5] = test system: EKVX
[6] = test system: HOP-62
[7] = test system: Hs-578T
[8] = test system: IGROV-1
[9] = test system: LOX IMVI
[10] = test system: NCI-H226
[11] = test system: NCI-H23
[12] = test system: NCI-H522
[13] = test system: OVCAR-8
[14] = test system: SF-295
[15] = test system: SN12C
[16] = test system: SNB-19
[17] = test system: SR
[18] = test system: TK-10
[19] = test system: U-251
[20] = test system: UACC-257

Measured: GI50

O=C(O)Cc1ccc(Oc2nc3ccccc3nc2-c2ccccc2)cc1
inactive: [1] > 100 µM | [2] > 100 µM | [3] 57.8 µM | [4] 61.4 µM | [5] 27.7 µM | [6] > 100 µM | [7] 41.7 µM | [8] 45.9 µM | [9] 60.3 µM | [10] 30.5 µM | [11] 63.8 µM | [12] 42.1 µM | [13] > 100 µM | [14] 79.4 µM | [15] 70 µM | [16] > 100 µM | [17] 4.22 µM | [18] 97.9 µM | [19] 56.2 µM | [20] > 100 µM

CC(CCC#N)(CCC#N)C(=O)CC(O)(C(F)(F)F)C(F)(F)F
inactive: [1] 2.12 µM | [2] 20.6 µM | [3] 10.1 µM | [4] 1.54 µM | [5] 20.7 µM | [6] 19.8 µM | [7] 15.3 µM | [8] 13.2 µM | [9] 2.07 µM | [10] 19.8 µM | [11] 5.43 µM | [12] 1.85 µM | [13] 3.3 µM | [14] 18.2 µM | [15] 7.24 µM | [16] 23.7 µM | [17] 1.4 µM | [18] 7.71 µM | [19] 9.16 µM | [20] 6.41 µM

COc1cc2c(c(OC)c1OC)C(=O)[C@H](Br)[C@H]2NC(=O)NCCCl
inactive: [1] > 100 µM | [2] > 100 µM | [3] 79.6 µM | [4] 23.6 µM | [5] 50.1 µM | [6] > 100 µM | [7] > 100 µM | [8] 68.1 µM | [9] 47.1 µM | [10] 88.5 µM | [11] > 100 µM | [12] > 100 µM | [13] > 100 µM | [14] > 100 µM | [15] > 100 µM | [16] > 100 µM | [17] 76.2 µM | [18] > 100 µM | [19] 51.1 µM | [20] > 100 µM

Cc1ccc(F)c2[nH]c(-c3ccccc3)cc(=O)c12
inactive: [1] 2.83 µM | [2] 39.4 µM | [3] 4.97 µM | [4] 4.48 µM | [5] > 25.2 µM | [6] 5.9 µM | [7] 14.9 µM | [8] 5.3 µM | [9] 4.68 µM | [10] 40.1 µM | [11] 9.46 µM | [12] 5.69 µM | [13] 6.11 µM | [14] 6.47 µM | [15] 7.1 µM | [16] 9.98 µM | [17] 2.99 µM | [18] 14.6 µM | [19] 6.04 µM | [20] 58.5 µM

CC1(C)CC2(C)ON=C(c3ccccc3)N2c2ccccc2N1 (stereo not given)
inactive: [1] 23.3 µM | [2] 28.6 µM | [3] 25.1 µM | [4] 32.7 µM | [5] 24 µM | [6] 17.7 µM | [7] 18.8 µM | [8] 32.1 µM | [9] 17.3 µM | [10] 17.3 µM | [11] 25 µM | [12] 21.4 µM | [13] 27.7 µM | [14] 28.7 µM | [15] 30.3 µM | [16] 24.2 µM | [17] 34.5 µM | [18] 39.4 µM | [19] 19.8 µM | [20] 24.4 µM

O=N/N=c1\o[n-][n+](CCc2ccccc2)c1Cc1/c(=N/N=O)o[n-][n+]1CCc1ccccc1
inactive: [1] 20.2 µM | [2] 46.8 µM | [3] > 100 µM | [4] > 100 µM | [5] 50 µM | [6] 23.2 µM | [7] 28.7 µM | [8] 25.1 µM | [9] 91.4 µM | [10] 29.9 µM | [11] 28.4 µM | [12] 23.1 µM | [13] 21.7 µM | [14] 25.6 µM | [15] 34.5 µM | [16] 28.2 µM | [17] 31.2 µM | [18] 25.2 µM | [19] 22.1 µM | [20] > 100 µM

CC1=NCC[N+]1(CCc1ccccc1)Cc1ccccc1 (stereo not given)
inactive: [1] > 100 µM | [2] 60.3 µM | [3] 13.4 µM | [4] 34.5 µM | [5] > 100 µM | [6] > 100 µM | [7] 16 µM | [8] 17.3 µM | [9] 44.9 µM | [10] 65 µM | [11] 19.8 µM | [12] 11.6 µM | [13] 37.3 µM | [14] > 100 µM | [15] 45.5 µM | [16] 71.9 µM | [17] 13.4 µM | [18] 48.1 µM | [19] 29.3 µM | [20] 19.3 µM
